# Measurements taken from US20170050957A1, “4-AMINO-6-(HETEROCYCLIC)PICOLINATES AND 6-AMINO-2-(HETEROCYCLIC)PYRIMIDINE-4-CARBOXYLATES AND THEIR USE AS HERBICIDES” (Dow AgroSciences LLC, priority 2013, published 2017).
# Read-outs that look alike come from different tables or passages of the source.
# Experiments:
# [1] = test system: Key Broadleaf Weed and Crop Species; experiment: Post-emergent Test II herbicidal activity (Table 15); assay type: in vivo; settings: post-emergence, 336 h, 14 d; for pest or weed control at 35 g/ha: 35 g ai/ha; for pest or weed control at 70 g/ha: 70 g ai/ha; for pest or weed control at 140 g/ha: 140 g ai/ha
# Outline: (§1)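 Visual injury rating (0 = none, 100% = complete kill) made 14 d after treatment, relative to untreated plants. Compounds in an acetone/DMSO/aqueous crop-oil/surfactant spray, at top rate and serial 1/2×-1/16× rates, were applied at 187 L/ha overhead to first-second true leaf plants raised 7-21 d in greenhouse.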
# [2] = test system: Key Grass and Sedge Weeds as well as Grass Crops; experiment: Post-emergent Test II herbicidal activity (Table 16); assay type: in vivo; settings: post-emergence, 336 h; for pest or weed control at 35 g/ha: 35 g ai/ha; for pest or weed control at 70 g/ha: 70 g ai/ha; for pest or weed control at 140 g/ha: 140 g ai/ha
# Outline: as §1
# [3] = Abutilon theophrasti, velvetleaf (Abutilon theophrasti), read-out: Visual Growth Reduction (%) 14 Days After Application, ABUTH
# [4] = Brassica napus, oilseed rape, canola (Brassica napus), read-out: Visual Growth Reduction (%) 14 Days After Application, BRSNN
# [5] = Chenopodium album, lambsquarters (Chenopodium album), read-out: Visual Growth Reduction (%) 14 Days After Application, CHEAL
# [6] = Euphorbia heterophylla, wild poinsettia (Euphorbia heterophylla), read-out: Visual Growth Reduction (%) 14 Days After Application, EPHHL
# [7] = Helianthus annuus, sunflower (Helianthus annuus), read-out: Visual Growth Reduction (%) 14 Days After Application, HELAN
# [8] = Cyperus esculentus, yellow nutsedge (Cyperus esculentus), 14 days after application, read-out: Visual Growth Reduction (%) 14 Days After Application CYPES
# [9] = Echinochloa crus-galli, barnyardgrass (Echinochloa crus-galli), 14 days after application, read-out: Visual Growth Reduction (%) 14 Days After Application ECHCG
# [10] = Oryza sativa, rice (Oryza sativa), 14 days after application, read-out: Visual Growth Reduction (%) 14 Days After Application ORYSA
# [11] = Setaria faberi, giant foxtail (Setaria faberi), 14 days after application, read-out: Visual Growth Reduction (%) 14 Days After Application SETFA
# [12] = Triticum aestivum, wheat, spring (Triticum aestivum), 14 days after application, read-out: Visual Growth Reduction (%) 14 Days After Application TRZAS
# [13] = Zea mays, maize, corn (Zea mays), 14 days after application, read-out: Visual Growth Reduction (%) 14 Days After Application ZEAMX
# [14] = Amaranthus retroflexus, redroot pigweed (Amaranthus retroflexus), read-out: Visual Growth Reduction (%) 14 Days After Application, AMARE
# [15] = Cyperus esculentus, yellow nutsedge (Cyperus esculentus), 14 d, read-out: Visual Growth Reduction (%) 14 Days After Application, CYPES
# [16] = Echinochloa crus-galli, barnyardgrass (Echinochloa crus-galli), 14 d, read-out: Visual Growth Reduction (%) 14 Days After Application, ECHCG
# [17] = Oryza sativa, rice (Oryza sativa), 14 d, read-out: Visual Growth Reduction (%) 14 Days After Application, ORYSA
# [18] = Setaria faberi, giant foxtail (Setaria faberi), 14 d, read-out: Visual Growth Reduction (%) 14 Days After Application, SETFA
# [19] = Triticum aestivum, wheat, spring (Triticum aestivum), 14 d, read-out: Visual Growth Reduction (%) 14 Days After Application, TRZAS
# [20] = Zea mays, maize, corn (Zea mays), 14 d, read-out: Visual Growth Reduction (%) 14 Days After Application, ZEAMX
smiles,measurement,setting,value
COC(=O)c1nc(-c2cccc3cn[nH]c23)c(F)c(N)c1Cl [Compound 4.13],pest or weed control at 35 g/ha,[1]; [3],0 to 29%
same,pest or weed control at 70 g/ha,[1]; [3],0 to 29%
same,pest or weed control at 140 g/ha,[1]; [3],0 to 29%
same,pest or weed control at 35 g/ha,[1]; [4],0 to 29%
same,pest or weed control at 70 g/ha,[1]; [4],0 to 29%
same,pest or weed control at 140 g/ha,[1]; [4],0 to 29%
same,pest or weed control at 35 g/ha,[1]; [5],0 to 29%
same,pest or weed control at 70 g/ha,[1]; [5],0 to 29%
same,pest or weed control at 140 g/ha,[1]; [5],60 to 74%
same,pest or weed control at 35 g/ha,[1]; [6],0 to 29%
same,pest or weed control at 70 g/ha,[1]; [6],0 to 29%
same,pest or weed control at 140 g/ha,[1]; [6],0 to 29%
same,pest or weed control at 35 g/ha,[1]; [7],0 to 29%
same,pest or weed control at 70 g/ha,[1]; [7],0 to 29%
same,pest or weed control at 140 g/ha,[1]; [7],0 to 29%
same,melting point,,207 to 210 °C
same,pest or weed control at 35 g/ha,[2]; [8],0 to 29%
same,pest or weed control at 70 g/ha,[2]; [8],0 to 29%
same,pest or weed control at 140 g/ha,[2]; [8],0 to 29%
same,pest or weed control at 35 g/ha,[2]; [9],0 to 29%
same,pest or weed control at 70 g/ha,[2]; [9],0 to 29%
same,pest or weed control at 140 g/ha,[2]; [9],0 to 29%
same,pest or weed control at 35 g/ha,[2]; [10],0 to 29%
same,pest or weed control at 70 g/ha,[2]; [10],0 to 29%
same,pest or weed control at 140 g/ha,[2]; [10],0 to 29%
same,pest or weed control at 35 g/ha,[2]; [11],0 to 29%
same,pest or weed control at 70 g/ha,[2]; [11],0 to 29%
same,pest or weed control at 140 g/ha,[2]; [11],0 to 29%
same,pest or weed control at 35 g/ha,[2]; [12],0 to 29%
same,pest or weed control at 70 g/ha,[2]; [12],0 to 29%
same,pest or weed control at 140 g/ha,[2]; [12],0 to 29%
same,pest or weed control at 35 g/ha,[2]; [13],0 to 29%
same,pest or weed control at 70 g/ha,[2]; [13],0 to 29%
same,pest or weed control at 140 g/ha,[2]; [13],0 to 29%
COc1c(C(=O)O)nc(-c2ccc3cc[nH]c3c2F)c(F)c1N [Compound 1.17],pest or weed control at 35 g/ha,[1]; [3],45 to 59%
same,pest or weed control at 70 g/ha,[1]; [3],45 to 59%
same,pest or weed control at 140 g/ha,[1]; [3],60 to 74%
same,pest or weed control at 35 g/ha,[1]; [14],95 to 100%
same,pest or weed control at 70 g/ha,[1]; [14],95 to 100%
same,pest or weed control at 140 g/ha,[1]; [14],95 to 100%
same,pest or weed control at 35 g/ha,[1]; [4],95 to 100%
same,pest or weed control at 70 g/ha,[1]; [4],95 to 100%
same,pest or weed control at 140 g/ha,[1]; [4],95 to 100%
same,pest or weed control at 35 g/ha,[1]; [5],95 to 100%
same,pest or weed control at 70 g/ha,[1]; [5],95 to 100%
same,pest or weed control at 140 g/ha,[1]; [5],95 to 100%
same,pest or weed control at 35 g/ha,[1]; [6],95 to 100%
same,pest or weed control at 70 g/ha,[1]; [6],95 to 100%
same,pest or weed control at 140 g/ha,[1]; [6],95 to 100%
same,pest or weed control at 35 g/ha,[1]; [7],95 to 100%
same,pest or weed control at 70 g/ha,[1]; [7],95 to 100%
same,pest or weed control at 140 g/ha,[1]; [7],95 to 100%
same,melting point,,133 to 140 °C
same,pest or weed control at 35 g/ha,[2]; [15],45 to 59%
same,pest or weed control at 70 g/ha,[2]; [15],45 to 59%
same,pest or weed control at 140 g/ha,[2]; [15],45 to 59%
same,pest or weed control at 35 g/ha,[2]; [16],85 to 94%
same,pest or weed control at 70 g/ha,[2]; [16],85 to 94%
same,pest or weed control at 140 g/ha,[2]; [16],85 to 94%
same,pest or weed control at 35 g/ha,[2]; [17],0 to 29%
same,pest or weed control at 70 g/ha,[2]; [17],0 to 29%
same,pest or weed control at 140 g/ha,[2]; [17],0 to 29%
same,pest or weed control at 35 g/ha,[2]; [18],75 to 84%
same,pest or weed control at 70 g/ha,[2]; [18],85 to 94%
same,pest or weed control at 140 g/ha,[2]; [18],85 to 94%
same,pest or weed control at 35 g/ha,[2]; [19],60 to 74%
same,pest or weed control at 70 g/ha,[2]; [19],60 to 74%
same,pest or weed control at 140 g/ha,[2]; [19],60 to 74%
same,pest or weed control at 35 g/ha,[2]; [20],60 to 74%
same,pest or weed control at 70 g/ha,[2]; [20],75 to 84%
same,pest or weed control at 140 g/ha,[2]; [20],75 to 84%
